{"source": "paper PMC5822683", "about": "(Inflammation, 2014)", "key": {"[1]": {"system": "LPS-stimulated isolated human neutrophils", "settings": "50 % donor plasma, 40 μg/ml"}, "[2]": {"system": "LPS-stimulated isolated human neutrophils"}, "[3]": {"system": "primary human monocytes", "settings": "ref [28]; cited from earlier work"}, "[4]": {"system": "human neutrophils stimulated by septic patient serum", "settings": "ref [24], cited from earlier work"}, "[5]": {"settings": "ref [21], [48]; cited from earlier work"}, "[6]": {"system": "IL-8-stimulated human neutrophils"}, "[7]": {"settings": "compared with human apoA-I; ref [37]; cited from earlier work"}, "[8]": {"settings": "statement in the discussion, no reference given; cited from earlier work"}, "[9]": {"system": "TNF-α-stimulated whole human blood", "settings": "40 μg/ml, human TNF-α 10 ng/ml, 6 h at 37 °C, n=4 (Fig. 2)"}, "[10]": {"system": "paraoxonase 1", "settings": "ref [20], [41]; cited from earlier work"}, "[11]": {"system": "leukocytes", "settings": "ref [24]; cited from earlier work"}, "[12]": {"system": "lipopolysaccharide-binding protein (LBP)", "settings": "ref [21]; cited from earlier work"}, "[13]": {"system": "LPS-stimulated isolated human leukocytes", "settings": "40 μg/ml, LPS 1 μg/ml, n=3"}, "[14]": {"system": "animal models of acute inflammation / severe sepsis", "settings": "cited from earlier work"}, "[15]": {"system": "rodents", "settings": "compared with L-4F doses studied here (Fig. S4)"}, "[16]": {"system": "LPS-stimulated whole human blood", "settings": "40 μg/ml, LPS 1 μg/ml, 3 h at 37 °C"}, "[17]": {"system": "human monocyte-derived macrophages", "settings": "ref [29]; cited from earlier work"}, "[18]": {"system": "patients with high-risk cardiovascular disease", "settings": "selected groups of patients with high-risk cardiovascular disease; ref [55], [56]; cited from earlier work"}}, "note": "Where a SMILES comes first, the peptide text is derived from it.", "data": [{"compound": "CC(=O)N[C@@H](CC(=O)O)C(=O)N[C@@H](Cc1c[nH]c2ccccc12)C(=O)N[C@@H](Cc1ccccc1)C(=O)N[C@@H](CCCCN)C(=O)N[C@@H](C)C(=O)N[C@@H](Cc1ccccc1)C(=O)N[C@@H](Cc1ccc(O)cc1)C(=O)N[C@@H](CC(=O)O)C(=O)N[C@@H](CCCCN)C(=O)N[C@H](C(=O)N[C@@H](C)C(=O)N[C@@H](CCC(=O)O)C(=O)N[C@@H](CCCCN)C(=O)N[C@@H](Cc1ccccc1)C(=O)N[C@@H](CCCCN)C(=O)N[C@@H](CCC(=O)O)C(=O)N[C@@H](C)C(=O)N[C@@H](Cc1ccccc1)C(N)=O)C(C)C", "note": "[L-4F] (Ac-DWFKAFYDKVAEKFKEAF-NH2)", "values": [{"measurement": "effect on LPS-induced TNF-α levels", "setting": "[1]; LPS 1 μg/ml, 30 min, 1 h, 3 h (Fig. 5A)", "result": "inhibit this effect (P<0.05 vs. LPS, for 30 min and 1 h, Fig. 5A)"}, {"measurement": "effect on LPS-mediated MPO elevation", "setting": "[1]; LPS 1 μg/ml, 30 min, 1 h, 3 h (Fig. 5B)", "result": "only inhibitory effect of L-4F reaches statistical significance (P<0.05 vs. LPS, for 30 min and 3 h, Fig. 5B)"}, {"measurement": "effect on LPS-mediated IL-6 increase", "setting": "[1]; LPS 1 μg/ml, 3 h, cell media, n=3, ELISA (Fig. 6)", "result": "significantly inhibits LPS-mediated IL-6 increase (P<0.05 vs. LPS)"}, {"measurement": "comparison with apoA-I, LPS-mediated increase in IL-6 levels", "setting": "[1]; LPS-stimulated neutrophils", "result": "tended to be superior in inhibiting LPS-mediated increase in IL-6 levels"}, {"measurement": "effect of agent alone on CD11b expression and lipid raft abundance", "setting": "[2]", "result": "Neither L-4F alone nor apoA-I alone affects CD11b expression and lipid raft abundance"}, {"measurement": "effect on LPS-increased CD11b expression", "setting": "[2]", "result": "inhibits this effect (P<0.05 vs. LPS, for L-4F at all time points and for apoA-I at 30 min, Fig. 3A, B)"}, {"measurement": "effect on LPS-increased lipid raft abundance", "setting": "[2]", "result": "inhibits this effect (P<0.05 vs. LPS, for L-4F at 1 and 3 h and for apoA-I at 1 h, Fig. 3C, D)"}, {"measurement": "cholesterol efflux and lipid raft abundance", "setting": "[3]", "result": "stimulate cholesterol efflux and reduce lipid raft abundance"}, {"measurement": "effective concentration", "setting": "[4]; concentration at which effective, L-4F", "result": 40, "unit": "µg/mL"}, {"measurement": "activation of neutrophils by septic patient serum", "setting": "[4]", "result": "inhibits activation of human neutrophils stimulated by septic patient serum"}, {"measurement": "interaction with LPS (co-localization of Bodipy-LPS and ^14C-L-4F in FPLC fractions)", "setting": "[5]", "result": "interaction of LPS and L-4F was strongly suggested"}, {"measurement": "effect on IL-8-induced increase of CD11b expression", "setting": "[6]", "result": "only minimal effect"}, {"measurement": "effect on IL-8-induced increase of lipid rafts abundance", "setting": "[6]", "result": "only minimal effect"}, {"measurement": "binding affinity for pro-inflammatory oxidized lipids", "setting": "[7]", "result": "binds pro-inflammatory oxidized lipids with higher affinity than human apoA-I"}, {"measurement": "water solubility", "setting": "[8]", "result": "high water solubility"}, {"measurement": "effect on TNF-α-mediated elevation of plasma IL-6", "setting": "[9]", "result": "does not reduce plasma levels of IL-6"}, {"measurement": "HDL-associated paraoxonase 1 activity", "setting": "[10]", "result": "increasing HDL-associated paraoxonase 1 activity"}, {"measurement": "inhibition of binding of LPS to leukocytes", "setting": "[11]", "result": "inhibit binding of LPS to leukocytes"}, {"measurement": "competition with LBP for binding with LPS", "setting": "[12]", "result": "compete with lipopolysaccharide-binding protein (LBP) for binding with LPS"}, {"measurement": "effect on LPS-mediated chemiluminescence (rate and peak)", "setting": "[13]; 5 or 50 % donor plasma, lucigenin 10 μM, 3 h at 37 °C, both P<0.05 vs. LPS (Fig. 9)", "result": "inhibits the rate as well as peak of LPS-mediated chemiluminescence"}, {"measurement": "inhibition of oxidative stress, L-4F vs. apoA-I", "setting": "[13]; 50 % plasma, 3 h, NS vs. apoA-I", "result": "the inhibitory effects of L-4F and apoA-I are similar"}, {"measurement": "dose with high efficiency in animal models of severe sepsis", "setting": "[14]; L-4F, ref [22]–[24]", "result": 10, "unit": "mg/kg"}, {"measurement": "effect in cecal ligation and puncture model of polymicrobial sepsis", "setting": "[14]; cecal ligation and puncture, ref [22]", "result": "has protective effects"}, {"measurement": "effect in animal models of acute inflammation", "setting": "[14]; ref [22]–[25]", "result": "reduces inflammatory response and improves survival"}, {"measurement": "tolerability in rodents", "setting": "[15]", "result": "rodents were able to tolerate L-4F in much higher doses"}, {"measurement": "effect on inflammatory response to LPS (TNF-α and IL-6)", "setting": "[16]; ELISA, n=4 (Fig. 1)", "result": "inhibits inflammatory response to LPS in blood to an equal extent"}, {"measurement": "plasma level of TNF-α", "setting": "[16]; n=4/group, *P<0.05 vs. saline-treated LPS (Fig. 1A)", "result": "reduces plasma levels of TNF-α"}, {"measurement": "plasma level of IL-6", "setting": "[16]; n=4/group, *P<0.05 vs. saline-treated LPS (Fig. 1B)", "result": "reduces plasma levels of TNF-α (A) and IL-6"}]}, {"compound": "Ac-DWFKAFYDKVAEKFKEAF-NH2 [4F]", "values": [{"measurement": "disruption of rafts and responsiveness of macrophages to LPS", "setting": "[17]", "result": "attenuating the responsiveness of macrophages to LPS"}, {"measurement": "safety profile in patients", "setting": "[18]", "result": "acceptable safety profile"}, {"measurement": "anti-inflammatory properties", "setting": "[14]; ref [19]–[21]", "result": "exerts strong anti-inflammatory properties"}]}]}
